In patent publication US6486191B2 (priority 1997, dated 2002):
In brackets after ≈: the same amount, converted by molar mass.

Legend:
Penicillium brevicaule = test: Material protection test (MIC on malt extract agar); assay type: cell-based; details: 336 h, two weeks at 27° C., 60 to 70% relative humidity, read-out: Minimum inhibitory concentration (MIC value)
Chaetomium globosum = test: as above; assay type: cell-based; details: 336 h, two weeks at 27° C., 60 to 70% relative humidity, read-out: Minimum inhibitory concentration (MIC value)
Aspergillus niger = test: as above; assay type: cell-based; details: 336 h, two weeks at 27° C., 60 to 70% relative humidity, read-out: Minimum inhibitory concentration (MIC value)
[1] = tested on: larvae of the horseradish beetle (Phaedon cochleariae); test: Phaedon larvae test; assay type: in vivo; details: cabbage leaves immersed, active substance concentration 0.1 % by weight
Method: (§1) Solvent: 7 parts by weight of dimethylformamide
(§2) Emulsifier: 1 part by weight of alkylaryl polyglycol ether
For the preparation of an expedient fonnulation of active substance, 1 part by weight of active substance is mixed with the stated amounts of solvent and emulsifier, and the concentrate is diluted to the desired concentration with water.
Cabbage leaves (Brassica oleracea) are treated by immersion in the formulation of active substance of the desired concentration and infested with larvae of the horseradish beetle (Phaedon cochleariae) as long as the leaves are still moist.
After the desired time, the kill in % is determined. 100% means that all beetle larvae were killed; 0% means that no beetle larvae were killed.

[2] = tested on: caterpillars of the diamondback moth (Plutella xylostella); test: Plutella test; assay type: in vivo; details: cabbage leaves immersed, active substance concentration 0.1 % by weight
Method: as §1, §2
For the preparation of an expedient formulation of active substance, 1 part by weight of active substance is mixed with the stated amounts of solvent and emulsifier, and the concentrate is diluted to the desired concentration with water.
Cabbage leaves (Brassica oleracea) are treated by immersion in the formulation of active substance of the desired concentration and infested with caterpillars of the diamondback moth (Plutella xylostella) as long as the leaves are still moist.
After the desired time, the kill in % is determined. 100% means that all caterpillars were killed; 0% means that no caterpillars were killed.

Compound	MIC (Penicillium brevicaule) [µg/mL]	MIC (Chaetomium globosum) [µg/mL]	MIC (Aspergillus niger) [µg/mL]	Kill in % after 7 d [1] [%]	Kill in % after 7 d [2] [%]
Cc1ccc(S(=O)(=O)n2c(C#N)nc3cc4c(cc32)OC(F)(F)C(F)(F)O4)cc1[N+](=O)[O-] [Example 2]	100 (≈ 212 µM)	100 (≈ 212 µM)	200 (≈ 423 µM)		
Cc1ccc([N+](=O)[O-])cc1S(=O)(=O)n1c(C#N)nc2cc3c(cc21)OC(F)(F)C(F)(F)O3 [Example 5]	100 (≈ 212 µM)	100 (≈ 212 µM)	200 (≈ 423 µM)		
Cc1ccc(S(=O)(=O)n2c(C#N)nc3cc4c(cc32)OC(F)(F)C(F)(F)O4)cc1[N+](=O)[O-] [drawing 67]				100	
Cc1ccc([N+](=O)[O-])cc1S(=O)(=O)n1c(C#N)nc2cc3c(cc21)OC(F)(F)C(F)(F)O3 [drawing 68]				100	
Cc1ccc(S(=O)(=O)n2c(C#N)nc3cc4c(cc32)OC(F)(F)C(F)(F)O4)cc1[N+](=O)[O-] [drawing 69]					100
Cc1ccc([N+](=O)[O-])cc1S(=O)(=O)n1c(C#N)nc2cc3c(cc21)OC(F)(F)C(F)(F)O3 [drawing 70]					100
